Results from ChEMBL document CHEMBL1201862, “PubChem BioAssay data set” (2004).
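Cultured in 96-well plates, cells were exposed to test compound for 48 hours across five concentrations. GI50 = concentration required for 50% inhibition of growth.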 Calls of active or inactive are those of the source. Rule as the data show it: active = GI50 up to about 1.1 µM and inactive = higher.

How the values were obtained:
Test in all cases: NCI-60 cell line screen, 48 h
[1] = system: SR
[2] = system: SNB-78
[3] = system: UACC-257
[4] = system: Malme-3M
[5] = system: SK-MEL-28
[6] = system: NCI-H226
[7] = system: HCC 2998
[8] = system: CAKI-1
[9] = system: SN12C
[10] = system: K562
[11] = system: A498
[12] = system: SK-MEL-5
[13] = system: EKVX
[14] = system: DMS-273
[15] = system: HOP-92
[16] = system: SK-MEL-2
[17] = system: HOP-18
[18] = system: OVCAR-4
[19] = system: UACC-62
[20] = system: COLO 205
[21] = system: LOX IMVI
[22] = system: NCI-H460
[23] = system: SF-539
[24] = system: HOP-62
[25] = system: U-251
[26] = system: A549
[27] = system: DLD-1
[28] = system: 786-0
[29] = system: SF-268
[30] = system: TK-10
[31] = system: MOLT-4
[32] = system: SNB-75
[33] = system: OVCAR-5
[34] = system: OVCAR-3
[35] = system: KM-20L2
[36] = system: OVCAR-8
[37] = system: IGROV-1
[38] = system: LXFL 529
[39] = system: CCRF-CEM
[40] = system: KM12
[41] = system: NCI-H522
[42] = system: SW-620
[43] = system: M14
[44] = system: NCI-H23
[45] = system: SF-295
[46] = system: RXF 393
[47] = system: HCT-15
[48] = system: UO-31
[49] = system: HT-29
[50] = system: SK-OV-3
[51] = system: ACHN
[52] = system: SNB-19
[53] = system: HCT-116
[54] = system: M19-MEL
[55] = system: DMS-114
[56] = system: RPMI-8226

Question: Which GI50 [1] does the source give for COc1cc(Nc2nc3ccc(C(F)(F)F)cc3nc2-c2ccccc2)cc(OC)c1OC here?
Answer: 8.3 µM (inactive)

Question: And the GI50 [2]?
Answer: > 100 µM (inactive)

Question: And the GI50 [3]?
Answer: 16.1 µM (inactive)

Question: And the GI50 [4]?
Answer: 37 µM (inactive)

Question: What about the GI50 [5] of the same compound?
Answer: 40.8 µM (inactive)

Question: And the GI50 [6]?
Answer: 7.66 µM (inactive)

Question: What about the GI50 [7] of the same compound?
Answer: 4.23 µM (inactive)

Question: What about the GI50 [8] of the same compound?
Answer: 18.8 µM (inactive)

Question: And the GI50 [9]?
Answer: 18.7 µM (inactive)

Question: What about the GI50 [10] of the same compound?
Answer: 5.56 µM (inactive)

Question: What about the GI50 [11] of the same compound?
Answer: 24.5 µM (inactive)

Question: What about the GI50 [12] of the same compound?
Answer: 16.4 µM (inactive)

Question: What about the GI50 [13] of the same compound?
Answer: 18.2 µM (inactive)

Question: And the GI50 [14]?
Answer: 12 µM (inactive)

Question: And the GI50 [15]?
Answer: 0.991 µM (active)

Question: And the GI50 [16]?
Answer: 21.9 µM (inactive)

Question: And the GI50 [17]?
Answer: < 0.01 µM (active)

Question: And the GI50 [18]?
Answer: 51.4 µM (inactive)

Question: What about the GI50 [19] of the same compound?
Answer: 36.2 µM (inactive)

Question: And the GI50 [20]?
Answer: > 10 µM (inactive)

Question: What about the GI50 [21] of the same compound?
Answer: 4.32 µM (inactive)

Question: What about the GI50 [22] of the same compound?
Answer: 4.82 µM (inactive)

Question: What about the GI50 [23] of the same compound?
Answer: 25.2 µM (inactive)

Question: And the GI50 [24]?
Answer: > 100 µM (inactive)

Question: And the GI50 [25]?
Answer: 32.7 µM (inactive)

Question: What about the GI50 [26] of the same compound?
Answer: 23.8 µM (inactive)

Question: What about the GI50 [27] of the same compound?
Answer: 6.73 µM (inactive)

Question: And the GI50 [28]?
Answer: 31 µM (inactive)

Question: And the GI50 [29]?
Answer: 5.75 µM (inactive)

Question: What about the GI50 [30] of the same compound?
Answer: > 100 µM (inactive)

Question: What about the GI50 [31] of the same compound?
Answer: 8.41 µM (inactive)

Question: What about the GI50 [32] of the same compound?
Answer: > 100 µM (inactive)

Question: What about the GI50 [33] of the same compound?
Answer: 20.7 µM (inactive)

Question: And the GI50 [34]?
Answer: 40.6 µM (inactive)

Question: And the GI50 [35]?
Answer: 5.85 µM (inactive)

Question: And the GI50 [36]?
Answer: 28.2 µM (inactive)

Question: And the GI50 [37]?
Answer: > 100 µM (inactive)

Question: What about the GI50 [38] of the same compound?
Answer: 23.1 µM (inactive)

Question: And the GI50 [39]?
Answer: 8.11 µM (inactive)

Question: What about the GI50 [40] of the same compound?
Answer: 9.38 µM (inactive)

Question: What about the GI50 [41] of the same compound?
Answer: 27.8 µM (inactive)

Question: And the GI50 [42]?
Answer: 85.3 µM (inactive)

Question: And the GI50 [43]?
Answer: 9.93 µM (inactive)

Question: What about the GI50 [44] of the same compound?
Answer: 67.5 µM (inactive)

Question: What about the GI50 [45] of the same compound?
Answer: 3.05 µM (inactive)

Question: What about the GI50 [46] of the same compound?
Answer: 30 µM (inactive)

Question: And the GI50 [47]?
Answer: 4.41 µM

Question: What about the GI50 [48] of the same compound?
Answer: 10 µM (inactive)

Question: What about the GI50 [49] of the same compound?
Answer: 1.98 µM (inactive)

Question: And the GI50 [50]?
Answer: > 100 µM (inactive)

Question: What about the GI50 [51] of the same compound?
Answer: 9.1 µM (inactive)

Question: Which results are given for Cc1ccc(S(=O)(=O)N/N=C(/CC(=O)c2c(C)[n+]([O-])c3ccccc3[n+]2[O-])C(=O)Nc2ccccc2C)cc1?
Answer: GI50 [1]: 35.5 µM (inactive); GI50 [2]: > 100 µM (inactive); GI50 [3]: > 100 µM (inactive); GI50 [4]: > 100 µM (inactive); GI50 [5]: > 100 µM (inactive); GI50 [6]: > 100 µM (inactive); GI50 [7]: > 100 µM (inactive); GI50 [52]: > 100 µM (inactive); GI50 [8]: > 100 µM (inactive); GI50 [9]: > 100 µM (inactive); GI50 [11]: > 100 µM (inactive); GI50 [13]: > 100 µM (inactive); GI50 [14]: > 100 µM (inactive); GI50 [15]: 30.8 µM (inactive); GI50 [16]: > 100 µM (inactive); GI50 [17]: > 100 µM (inactive); GI50 [18]: > 100 µM (inactive); GI50 [19]: > 100 µM (inactive); GI50 [20]: > 100 µM (inactive); GI50 [22]: > 100 µM (inactive); GI50 [23]: > 100 µM (inactive); GI50 [24]: > 100 µM (inactive); GI50 [25]: > 100 µM (inactive); GI50 [26]: > 100 µM (inactive); GI50 [27]: > 100 µM (inactive); GI50 [53]: > 100 µM (inactive); GI50 [28]: > 100 µM (inactive); GI50 [29]: > 100 µM (inactive); GI50 [32]: 31.2 µM (inactive); GI50 [33]: > 100 µM (inactive); GI50 [34]: > 100 µM (inactive); GI50 [35]: > 100 µM (inactive); GI50 [37]: > 100 µM (inactive); GI50 [38]: > 100 µM (inactive); GI50 [54]: > 100 µM (inactive); GI50 [40]: > 100 µM (inactive); GI50 [41]: > 100 µM (inactive); GI50 [55]: > 100 µM (inactive); GI50 [42]: > 100 µM (inactive); GI50 [43]: > 100 µM (inactive); GI50 [44]: > 100 µM (inactive); GI50 [56]: > 100 µM (inactive); GI50 [45]: > 100 µM (inactive); GI50 [46]: > 100 µM (inactive); GI50 [47]: > 100 µM; GI50 [48]: > 100 µM (inactive); GI50 [49]: > 100 µM (inactive); GI50 [50]: > 100 µM (inactive); GI50 [51]: > 100 µM (inactive)
